We go through 18 compounds from patent US5358950A, “Triazolopyrimidine derivatives which are angiotensin II receptor antagonists” (Laboratoires UPSA, priority 1991, dated 1994).

The subject of this assay is adrenal angiotensin II receptors. As to the kind of experiment: Displacement of radiolabelled ligand [^125 I]-SIAII specifically bound to rat adrenal angiotensin II receptors. Conditions: rat adrenal homogenate, 60 min at 25° C. The class given is binding. Here is the method:
The affinity of the products of the examples for angiotensin II receptors is assessed by a technique of displacement of a radiolabelled ligand specifically bound to the adrenal angiotensin II receptors in the rat.
An aliquot of a rat adrenal homogenate is incubated in the presence of a single concentration of [^125 I]-SIAII(Sar^1 Tyr^4, Ile^8 -angiotensin II) which is an angiotensin II receptor antagonist, and two concentrations of competitive agents ([…]) for 60 min at 25° C.
The reaction is stopped by adding buffer, followed by rapid filtration through glass-paper filters. The non-specific binding is determined in the presence of angiotensin II.
The results are expressed, for the concentrations tested, as a percentage displacement of the radiolabelled ligand specifically bound to the adrenal angiotensin II receptors.

For the compound `CCCc1nc(C)n2c(=O)[nH]nc2c1Cc1ccc(-c2ccccc2-c2nnn[nH]2)cc1` [Example 19, 7-n-Propyl-5-methyl-8-{[2'-(5-tetrazolyl)-4-biphenylyl]methyl}-1,2,4-triazolo[4,3-c]pyrimidin-3(2H)-one], the “% displacement of the labelled ligand” value (1E-5M, 10 µM) was determined as 66% and the “% displacement of the labelled ligand” value (1E-7M, 0.1 µM) came to 48%.

On to `CCCc1nc(C)n2[nH]c(=O)nc2c1Cc1ccc(-c2ccccc2-c2nnn[nH]2)cc1` [Example 20, 7-n-Propyl-5-methyl-8-{[2'-(5-tetrazolyl)-4-biphenylyl]methyl}-1,2,4-triazolo[1,5-c]pyrimidin-2(3H)-one], for which the “% displacement of the labelled ligand” value by setting is: (1E-5M, 10 µM) 60%; (1E-7M, 0.1 µM) 45%.

For `CCCc1nc(C)n2c(=O)n(CCO)nc2c1Cc1ccc(-c2ccccc2-c2nnn[nH]2)cc1` [Example 25, 2-[7-n-Propyl-5-methyl-3-oxo-8-{[2'-(5-tetrazolyl)-4-biphenylyl]methyl}-2,3-dihydro-1,2,4-triazolo[4,3-c]pyrimidin-2-yl]ethanol], the “% displacement of the labelled ligand” value is recorded as 68% (1E-5M, 10 µM) and 54% (1E-7M, 0.1 µM).

`CCCCc1nc(C)n2c(=O)[nH]nc2c1Cc1ccc(-c2ccccc2-c2nnn[nH]2)cc1` [Example 36, 7-n-Butyl-5-methyl-8-{[2'-(5-tetrazolyl)-4-biphenylyl]methyl}-1,2,4-triazolo[4,3-c]pyrimidin-3(2H)-one]: the “% displacement of the labelled ligand” value is 65% (1E-5M, 10 µM) and 43% (1E-7M, 0.1 µM).

On to `CCCc1nc(C)n2nc(S)nc2c1Cc1ccc(-c2ccccc2-c2nnn[nH]2)cc1` [Example 42, 7-n-propyl-5-methyl-2-mercapto-8-{[2'-(5-tetrazolyl)-4-biphenylyl]methyl}-1,2,4-triazolo[1,5-c]pyrimidine], for which the “% displacement of the labelled ligand” value (1E-5M, 10 µM) was determined as 75% and the “% displacement of the labelled ligand” value (1E-7M, 0.1 µM) worked out at 46%.

In the case of `CCCc1nc(C)n2c(S)nnc2c1Cc1ccc(-c2ccccc2-c2nnn[nH]2)cc1` [Example 68, 7-n-Propyl-5-methyl-3-mercapto-8-{[2'-(5-tetrazolyl)-4-biphenylyl]methyl}-1,2,4-triazolo[4,3-c]pyrimidine], the “% displacement of the labelled ligand” value is on record as 67% (1E-5M, 10 µM) and 33% (1E-7M, 0.1 µM).

As for `CCCc1nc(C)n2ncnc2c1Cc1ccc(-c2ccccc2-c2nnn[nH]2)cc1` [Example 71, 7-n-propyl-5-methyl-8-{[2'-(5-tetrazolyl)-4-biphenylyl]methyl}-1,2,4-triazolo[1,5-c]pyrimidine], the “% displacement of the labelled ligand” value is reported as 73% (1E-5M, 10 µM) and 60% (1E-7M, 0.1 µM).

As to `CCCc1nc(C)n2nc(C)nc2c1Cc1ccc(-c2ccccc2-c2nnn[nH]2)cc1` [Example 74, 7-n-Propyl-2,5-dimethyl-8-{[2'-(5-tetrazolyl)-4-biphenylyl}methyl]-1,2,4-triazolo[1,5-c]pyrimidine], the “% displacement of the labelled ligand” value came to 69% (1E-5M, 10 µM) and 54% (1E-7M, 0.1 µM).

On to `CCCc1nc(C)n2nc(CC)nc2c1Cc1ccc(-c2ccccc2-c2nnn[nH]2)cc1` [Example 78, 7-n-Propyl-5-methyl-8-{[2 '(5-tetrazolyl)-4-biphenylyl]methyl}-2-ethyl-1,2,4-triazolo[1,5-c]pyrimidine], for which the “% displacement of the labelled ligand” value runs as follows: (1E-5M, 10 µM) 67%; (1E-7M, 0.1 µM) 52%.

Turning to `CCCc1nc(C)n2nc(NC)nc2c1Cc1ccc(-c2ccccc2-c2nnn[nH]2)cc1` [Example 80, 7-n-Propyl-5-methyl-2-methylamino-8-{[2'-(5-tetrazolyl)-4-biphenylyl]methyl}-1,2,4-triazolo [1,5-c]pyrimidine], the “% displacement of the labelled ligand” value runs as follows: (1E-5M, 10 µM) 74%; (1E-7M, 0.1 µM) 59%.

Regarding `CCc1nc(C)n2nc(C)nc2c1Cc1ccc(-c2ccccc2-c2nn[nH]n2)cc1` [Example 90, 7-Ethyl-2 , 5-dimethyl-8-{[2 '-(5-tetrazolyl)-4-biphenylyl]methyl}-i, 2,4-triazolo[1,5-c]pyrimidine], the “% displacement of the labelled ligand” value (1E-5M, 10 µM) is reported as 63% and the “% displacement of the labelled ligand” value (1E-7M, 0.1 µM) was found to be 48%.

Regarding `CCc1nc(C)n2[nH]c(=O)nc2c1Cc1ccc(-c2ccccc2-c2nnn[nH]2)cc1` [Example 97, 7-Ethyl-5-methyl-8-{[2'(5-tetrazolyl)-4-biphenylyl]methyl}-1,2,4-triazolo[1,5-c]pyrimidin-2(3H)-one], the “% displacement of the labelled ligand” value is, setting by setting: (1E-5M, 10 µM) 60%; (1E-7M, 0.1 µM) 38%.

Regarding `CCCc1nc(C)n2nc(N)nc2c1Cc1ccc(-c2ccccc2-c2nnn[nH]2)cc1` [Example 107, 7-n-Propyl-5-methyl-2-amino-8-{[2'-(5-tetrazolyl)-4-biphenylyl]methyl}-1,2,4-triazolo[1,5-c]pyrimidine], the “% displacement of the labelled ligand” value (1E-5M, 10 µM) amounted to 71% and the “% displacement of the labelled ligand” value (1E-7M, 0.1 µM) stood at 58%.

With `CCCc1nc(C)n2nc(C(=O)OCC)nc2c1Cc1ccc(-c2ccccc2-c2nnn[nH]2)cc1` [Example 109, Ethyl 7-n-propyl-5-methyl-8-{[2'-(5-tetrazolyl)-4-biphenylyl]methyl}-1,2,4-triazolo[1,5-c]pyrimidine-2-carboxylate], the “% displacement of the labelled ligand” value (1E-5M, 10 µM) is 67% and the “% displacement of the labelled ligand” value (1E-7M, 0.1 µM) is given as 46%.

Regarding `CCCCc1nc(C)n2[nH]c(=O)nc2c1Cc1ccc(-c2ccccc2-c2nnn[nH]2)cc1` [Example 112, 7-n-Butyl-5-methyl-8-{[2'(5-tetrazolyl)-4-biphenylyl]methyl}-1,2,4-triazolo[1,5-c]pyrimidin-2(3H)-one], the “% displacement of the labelled ligand” value runs as follows: (1E-5M, 10 µM) 60%; (1E-7M, 0.1 µM) 41%.

As to `CCCc1nc(CC)n2[nH]c(=O)nc2c1Cc1ccc(-c2ccccc2-c2nnn[nH]2)cc1` [Example 138, 7-n-Propyl-5-ethyl-8-{[2'-(5-tetrazolyl)-4-biphenylyl]methyl}-1,2,4-triazolo[1,5-c]pyrimidin-2(3H)-one], the “% displacement of the labelled ligand” value worked out at 61% (1E-5M, 10 µM) and 17% (1E-7M, 0.1 µM).

With `CCCc1nc(C)n2nc(CC(=O)OCC)nc2c1Cc1ccc(-c2ccccc2-c2nnn[nH]2)cc1` [Example 146, Ethyl [7-n-propyl-5-methyl-8-{[2'-(5-tetrazolyl)-4-biphenylyl]methyl}-1,2,4-triazolo[1,5-c]pyrimidin-2-yl]acetate], the “% displacement of the labelled ligand” value (1E-5M, 10 µM) was 74% and the “% displacement of the labelled ligand” value (1E-7M, 0.1 µM) stood at 56%.

Take `CCCc1nc(C)n2nc(COC)nc2c1Cc1ccc(-c2ccccc2-c2nnn[nH]2)cc1` [Example 152, 7-n-Propyl-5-methyl-2-methoxymethyl-8-{[2'-(5-tetrazolyl)-4-biphenylyl]methyl}-1,2,4-triazolo[1,5-c]pyrimidine]: the “% displacement of the labelled ligand” value is recorded as 69% (1E-5M, 10 µM) and 57% (1E-7M, 0.1 µM).
